Reference: PubChem BioAssay (NCI)
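GI50 = concentration required for 50% inhibition of growth. TGI: total growth inhibition.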

Assays:
Assay in all cases: DTP human tumour cell line panel, 384-well format
HCC-2998 colon = test system: HCC-2998 colon
A498 renal = test system: A498 renal
M14 melanoma = test system: M14 melanoma
UO-31 renal = test system: UO-31 renal
MOLT-4 leukemia = test system: MOLT-4 leukemia
TK-10 renal = test system: TK-10 renal
PC-3 prostate = test system: PC-3 prostate
NCI-H522 lung = test system: NCI-H522 lung
HOP-92 NSCLC = test system: HOP-92 NSCLC
ACHN renal = test system: ACHN renal
A549 NSCLC = test system: A549 NSCLC
SF-295 CNS = test system: SF-295 CNS
SR leukemia = test system: SR leukemia
OVCAR-4 ovarian = test system: OVCAR-4 ovarian
MDA-MB-435 melanoma = test system: MDA-MB-435 melanoma
OVCAR-3 ovarian = test system: OVCAR-3 ovarian
CCRF-CEM leukemia = test system: CCRF-CEM leukemia
LOX IMVI melanoma = test system: LOX IMVI melanoma
NCI-H460 NSCLC = test system: NCI-H460 NSCLC
HCT-15 colon = test system: HCT-15 colon
MDA-MB-468 breast = test system: MDA-MB-468 breast
UACC-62 melanoma = test system: UACC-62 melanoma
COLO 205 colon = test system: COLO 205 colon
SN12C renal = test system: SN12C renal
CAKI-1 renal = test system: CAKI-1 renal
IGROV1 ovarian = test system: IGROV1 ovarian
SNB-19 CNS = test system: SNB-19 CNS
SF-539 CNS = test system: SF-539 CNS
MCF7 breast = test system: MCF7 breast
NCI-H322M lung = test system: NCI-H322M lung
MDA-MB-231 breast = test system: MDA-MB-231 breast
UACC-257 melanoma = test system: UACC-257 melanoma
NCI-H23 lung = test system: NCI-H23 lung
OVCAR-8 ovarian = test system: OVCAR-8 ovarian
U251 glioblastoma = test system: U251 glioblastoma
OVCAR-5 ovarian = test system: OVCAR-5 ovarian
KM12 colon = test system: KM12 colon
DU-145 prostate = test system: DU-145 prostate
K-562 leukemia = test system: K-562 leukemia
SK-MEL-2 melanoma = test system: SK-MEL-2 melanoma
SK-MEL-28 melanoma = test system: SK-MEL-28 melanoma
HCT-116 colon = test system: HCT-116 colon
HOP-62 NSCLC = test system: HOP-62 NSCLC
RXF 393 renal = test system: RXF 393 renal
NCI-H226 lung = test system: NCI-H226 lung
SW-620 colon = test system: SW-620 colon
SF-268 CNS = test system: SF-268 CNS
T-47D breast = test system: T-47D breast
786-0 renal = test system: 786-0 renal
SK-MEL-5 melanoma = test system: SK-MEL-5 melanoma
RPMI-8226 leukemia = test system: RPMI-8226 leukemia
NCI/ADR-RES ovarian = test system: NCI/ADR-RES ovarian
HL-60(TB) leukemia = test system: HL-60(TB) leukemia
MALME-3M melanoma = test system: MALME-3M melanoma
HT29 colon = test system: HT29 colon

`CN[C@@H](C)C(=O)N[C@H]1CN(S(=O)(=O)c2cccc(S(=O)(=O)N3CC[C@H]4CC[C@@H](C(=O)NC(c5ccccc5)c5ccccc5)N4C(=O)[C@@H](NC(=O)[C@H](C)NC)C3)c2)CC[C@H]2CC[C@@H](C(=O)NC(c3ccccc3)c3ccccc3)N2C1=O` was tested, and the GI50 (HCC-2998 colon) was 11.7 µM, the TGI (HCC-2998 colon) was 24 µM and the GI50 (A498 renal) was 35.8 µM. For the same compound, the TGI (A498 renal) was > 100 µM, the GI50 (M14 melanoma) was 20.3 µM and the TGI (M14 melanoma) was 44.9 µM. For the same compound, the GI50 (UO-31 renal) was 76 µM, the TGI (UO-31 renal) was > 100 µM and the GI50 (MOLT-4 leukemia) was 6.56 µM. For the same compound, the TGI (MOLT-4 leukemia) was 18.6 µM, the GI50 (TK-10 renal) was 44 µM and the TGI (TK-10 renal) was > 100 µM. The GI50 (PC-3 prostate) was 15.5 µM, the TGI (PC-3 prostate) was 28.9 µM and the GI50 (NCI-H522 lung) was 0.0634 µM. The TGI (NCI-H522 lung) was 2.93 µM, the GI50 (HOP-92 NSCLC) was 0.242 µM and the TGI (HOP-92 NSCLC) was 2.69 µM. The GI50 (ACHN renal) was > 100 µM, the TGI (ACHN renal) was > 100 µM and the GI50 (A549 NSCLC) was 46.6 µM. For the same compound, the TGI (A549 NSCLC) was > 100 µM, the GI50 (SF-295 CNS) was 11 µM and the TGI (SF-295 CNS) was 23.6 µM. The GI50 (SR leukemia) was 0.0253 µM, the TGI (SR leukemia) was 2.82 µM and the GI50 (OVCAR-4 ovarian) was < 0.01 µM. The TGI (OVCAR-4 ovarian) was < 0.01 µM, the GI50 (MDA-MB-435 melanoma) was 0.0478 µM and the TGI (MDA-MB-435 melanoma) was 16.8 µM. For the same compound, the GI50 (OVCAR-3 ovarian) was 2.17 µM, the TGI (OVCAR-3 ovarian) was 17.6 µM and the GI50 (CCRF-CEM leukemia) was 0.0133 µM. For the same compound, the TGI (CCRF-CEM leukemia) was 1.46 µM, the GI50 (LOX IMVI melanoma) was 13 µM and the TGI (LOX IMVI melanoma) was 25.7 µM. The GI50 (NCI-H460 NSCLC) was 11.2 µM, the TGI (NCI-H460 NSCLC) was 25.5 µM and the GI50 (HCT-15 colon) was > 100 µM. The TGI (HCT-15 colon) was > 100 µM, the GI50 (MDA-MB-468 breast) was < 0.01 µM and the TGI (MDA-MB-468 breast) was 0.0196 µM. For the same compound, the GI50 (UACC-62 melanoma) was 13.9 µM, the TGI (UACC-62 melanoma) was 27.5 µM and the GI50 (COLO 205 colon) was 12.5 µM. The TGI (COLO 205 colon) was 26 µM, the GI50 (SN12C renal) was 20.8 µM and the TGI (SN12C renal) was 37.3 µM. For the same compound, the GI50 (CAKI-1 renal) was > 100 µM, the TGI (CAKI-1 renal) was > 100 µM and the GI50 (IGROV1 ovarian) was 16.1 µM. For the same compound, the TGI (IGROV1 ovarian) was 30.3 µM, the GI50 (SNB-19 CNS) was 16.6 µM and the TGI (SNB-19 CNS) was 30.2 µM. It also gave a GI50 (SF-539 CNS) of 16.6 µM, a TGI (SF-539 CNS) of 30.2 µM and a GI50 (MCF7 breast) of 1.84 µM. The TGI (MCF7 breast) was 5.7 µM, the GI50 (NCI-H322M lung) was 16.6 µM and the TGI (NCI-H322M lung) was 30.3 µM. The GI50 (MDA-MB-231 breast) was < 0.01 µM, the TGI (MDA-MB-231 breast) was < 0.01 µM and the GI50 (UACC-257 melanoma) was 11.7 µM. For the same compound, the TGI (UACC-257 melanoma) was 24.4 µM, the GI50 (NCI-H23 lung) was 0.0315 µM and the TGI (NCI-H23 lung) was 0.459 µM. The GI50 (OVCAR-8 ovarian) was 2.24 µM, the TGI (OVCAR-8 ovarian) was 19.3 µM and the GI50 (U251 glioblastoma) was 12.6 µM. The TGI (U251 glioblastoma) was 25.9 µM, the GI50 (OVCAR-5 ovarian) was 19.1 µM and the TGI (OVCAR-5 ovarian) was 34.8 µM. For the same compound, the GI50 (KM12 colon) was 12.4 µM, the TGI (KM12 colon) was 24.9 µM and the GI50 (DU-145 prostate) was 2.3 µM. It also gave a TGI (DU-145 prostate) of 16.7 µM, a GI50 (K-562 leukemia) of 4.42 µM and a TGI (K-562 leukemia) of 22.4 µM. The GI50 (SK-MEL-2 melanoma) was < 0.01 µM, the TGI (SK-MEL-2 melanoma) was < 0.01 µM and the GI50 (SK-MEL-28 melanoma) was 12.6 µM. For the same compound, the TGI (SK-MEL-28 melanoma) was 25.2 µM, the GI50 (HCT-116 colon) was 23.7 µM and the TGI (HCT-116 colon) was 87.5 µM. The GI50 (HOP-62 NSCLC) was 0.57 µM, the TGI (HOP-62 NSCLC) was 4.56 µM and the GI50 (RXF 393 renal) was < 0.01 µM. It also gave a TGI (RXF 393 renal) of 0.073 µM, a GI50 (NCI-H226 lung) of 17.4 µM and a TGI (NCI-H226 lung) of 47.7 µM. For the same compound, the GI50 (SW-620 colon) was 37.7 µM, the TGI (SW-620 colon) was > 100 µM and the GI50 (SF-268 CNS) was 13.2 µM. The TGI (SF-268 CNS) was 26 µM, the GI50 (T-47D breast) was 13.8 µM and the TGI (T-47D breast) was 28 µM. For the same compound, the GI50 ([…]-0 renal) was 23.5 µM, the TGI (786-0 renal) was 62.8 µM and the GI50 (SK-MEL-5 melanoma) was 0.11 µM. For the same compound, the TGI (SK-MEL-5 melanoma) was 0.422 µM, the GI50 (RPMI-8226 leukemia) was 0.0326 µM and the TGI (RPMI-8226 leukemia) was 1.23 µM. For the same compound, the GI50 (NCI/ADR-RES ovarian) was 46.1 µM, the TGI (NCI/ADR-RES ovarian) was > 100 µM and the GI50 (HL-60(TB) leukemia) was < 0.01 µM. The TGI (HL-60(TB) leukemia) was < 0.01 µM, the GI50 (MALME-3M melanoma) was < 0.01 µM and the TGI (MALME-3M melanoma) was 0.0336 µM. For the same compound, the GI50 (HT29 colon) was 16 µM and the TGI (HT29 colon) was 35.7 µM.
